Measured values taken from patent US9173840B2, “Multifunctional self-assembling polymeric nanosystems” (Northeastern University, priority 2008, dated 2015).
Like-named read-outs stand apart in the source and are kept apart here.

How the values were obtained:
[1] = test system: KHOSR2 cells; experiment: Fluorescence microscopy of cellular doxorubicin uptake; assay type: cell-based, human; details: 3 hr incubation
Experimental: For cellular uptake studies, KHOS and KHOSR2 cells were seeded at densities of 5×10^5 cells/well in 6 well plates. MDR1 siRNA was applied to a well of KHOSR2 and incubated for 48 h. Following the incubation, doxorubicin was added to each well and was incubated for additional 3 hr. After incubation, the cells were washed, suspended in fresh RPMI 1640, then visualized on a Nikon Eclipse Ti-U fluorescence microscope equipped with a SPOT RT digital camera (Diagnostic Instruments, Inc., Sterling Heights, Mich.). Fluorescence intensity and cellular localization was analyzed at a wavelength of 488 nm in triplicate in random, different fields.
Cellular uptake studies were based on the fluorescence microscopic procedures of Venne et al. (Cancer Res. 56:3626-3629 (1996)). KHOS and KHOSR2 cells were seeded at densities of 5×10^5 cells/well in 6 well plates and incubated for 24 hr to allow cell attachment. […] After incubation, the cells were washed and resuspended with PBS and were then visualized on a Nikon Eclipse Ti-U fluorescence microscope (Nikon Corp.) equipped with a SPOT RT digital camera (Diagnostic Instruments, Inc., Sterling Heights, Mich.). Fluorescence intensity and cellular localization was analyzed at a wavelength of 488 nm in triplicate different fields at random.

[2] = test system: KHOSR2 cells; experiment: In vitro cytotoxicity MTT assay, KHOSR2; details: Homo sapiens
[3] = test system: PARP; experiment: Cellular apoptosis assay: cleavage of PARP by Western blot; assay type: cell-based, human; details: KHOS and KHOSR2
Text: Whole-cell lysates were immunoblotted with specific antibodies to PARP (Cell Signaling Technology) and its cleavage products. Positive immunoreactions were detected using Super Signal® West Pico Chemiluminescent Substrate. Bands were semiquantified by reverse image scanning densitometry with PhotoShop 7.0 (Adobe, San Jose, Calif.). An area of the gel image that was devoid of signal was assigned to be the background value. Each band of the protein representing cleaved PARP from KHOS or KHOSR2 treated with either doxorubicin, alone, or nanoparticle-loaded with doxorubicin at various concentrations, were analyzed for the density beyond background level. To ensure that the loading of the protein was equal and differences were not being observed because of one specimen having more protein than another, the band corresponding to β-actin was determined for each protein. The density of the protein band was normalized to the β-actin band for the protein and the ratio of the cleaved PARP was normalized by dividing by the ratio of the actin corresponding to each cleaved PARP.

[4] = test system: U-2OSR2 cells; experiment: In vitro cytotoxicity MTT assay, U-2OSR2; assay type: cell-based; details: Homo sapiens
[5] = test system: U-2OS cells; experiment: In vitro cytotoxicity MTT assay, U-2OS; details: Homo sapiens, U2OS, read-out: IC50 anti-proliferative activity

**Q.** Which “subcellular distribution of doxorubicin fluorescence” value ([1]; drug-resistant cell line, Example 2) does the source give for COc1cccc2c1C(=O)c1c(O)c3c(c(O)c1C2=O)C[C@@](O)(C(=O)CO)C[C@@H]3O[C@H]1C[C@H](N)[C@H](O)[C@H](C)O1 [doxorubicin] here?
**A.** primarily concentrated in the cytoplasm

**Q.** And the “subcellular distribution of doxorubicin fluorescence, free doxorubicin” value ([1]; drug-resistant osteosarcoma cells)?
**A.** primarily concentrated in the cytoplasm

**Q.** And the IC50 ([2]; MDR1, read-out: IC50 of doxorubicin co-treated with MDR1 siRNA-loaded nanoparticles)?
**A.** 100 nM

**Q.** And the IC50 ([2]; read-out: IC50 anti-proliferative activity)?
**A.** 3000 nM

**Q.** And the IC50 ([2]; read-out: IC50 of doxorubicin, alone)?
**A.** 10000 nM

**Q.** What about the “cleavage of PARP / apoptosis induction” value [3] of the same compound?
**A.** higher concentrations of doxorubicin, alone, induced apoptosis

**Q.** What about the IC50 ([4]; U-2OSR2, Example 1, nanoparticles loaded with 100 nM MDR1 siRNA, read-out: IC50 for doxorubicin co-treated with the MDR1 siRNA-loaded nanoparticles) of the same compound?
**A.** 60 nM

**Q.** What about the IC50 ([4]; U-2OSR2, Example 1, read-out: IC50 for doxorubicin, alone) of the same compound?
**A.** 6000 nM

**Q.** And the IC50 ([4]; U-2OSR2, Example 2, FIG. 17D, read-out: IC50 anti-proliferative activity)?
**A.** 6000 nM

**Q.** What about the IC50 [5] of the same compound?
**A.** 300 nM
